“And” between values parts separate entries of the source, which are not always exact repeats. Equal entries are not always repeated. Toxic doses and inconclusive results are not listed.
Test system: P388 leukemia ip, CD2F1 mice, survival T/C
Experiment: NCI In Vivo Anticancer Drug Screen. Data for tumor model P388 Leukemia (intraperitoneal) in CD2F1 (CDF1) mice
Conditions: endpoint: median survival time, higher = longer survival
How it was run: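 Mice carrying the transplanted tumor received test compound or vehicle. Survival was recorded in each group, and the value is the treated-group measurement divided by that of the vehicle-treated control group.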

[1] = dose: 50.0 mg/kg/injection, schedule: Q01DX009 (ip), vehicle: saline
[2] = dose: 100.0 mg/kg/injection, schedule: Q01DX009 (ip), vehicle: saline
[3] = dose: 200.0 mg/kg/injection, schedule: Q01DX009 (ip), vehicle: saline

For `Nc1ncnc2c1ncn2C1OC(COP(=O)(O)O)C(O)C1O` (centres undefined), the T/C (dose: 12.5 mg/kg/injection, schedule: Q01DX009 (ip), vehicle: saline) was 99 % of control, the T/C (dose: 18.8 mg/kg/injection, schedule: Q03HX016 (ip), vehicle: saline) was 123 % of control and the T/C (dose: 18.8 mg/kg/injection, schedule: Q03HX024 (ip), vehicle: saline) was 113 % of control. For the same molecule, the T/C (dose: 20.0 mg/kg/injection, schedule: Q01DX009 (ip), vehicle: water) was 96 % of control, the T/C (dose: 25.0 mg/kg/injection, schedule: Q01DX009 (ip), vehicle: saline) was 102 % of control and the T/C (dose: 25.0 mg/kg/injection, schedule: Q01DX009 (ip), vehicle: suspension in saline) was 104 % of control. For the same molecule, the T/C (dose: 40.0 mg/kg/injection, schedule: Q01DX009 (ip), vehicle: water) was 103 % of control and 105 % of control, the T/C (dose: 50.0 mg/kg/injection, schedule: Q01DX005 (ip), vehicle: water) was 101 % of control and the T/C (dose: 50.0 mg/kg/injection, schedule: Q01DX005 (iv), vehicle: water) was 102 % of control. The T/C [1] was 94 % of control and 98 % of control, the T/C (dose: 50.0 mg/kg/injection, schedule: Q01DX009 (ip), vehicle: suspension in saline) was 100 % of control and the T/C (dose: 50.0 mg/kg/injection, schedule: Q01DX009 (ip), vehicle: water) was 113 % of control. For the same molecule, the T/C (dose: 75.0 mg/kg/injection, schedule: Q03HX016 (ip), vehicle: saline) was 152 % of control, the T/C (dose: 75.0 mg/kg/injection, schedule: Q03HX024 (ip), vehicle: saline) was 150 % of control and the T/C (dose: 80.0 mg/kg/injection, schedule: Q01DX009 (ip), vehicle: water) was 108 % of control and 116 % of control. For the same molecule, the T/C (dose: 90.0 mg/kg/injection, schedule: Q03HX024 (ip), vehicle: water) was 122 % of control, the T/C (dose: 100.0 mg/kg/injection, schedule: Q01DX005 (ip), vehicle: water) was 122 % of control and the T/C (dose: 100.0 mg/kg/injection, schedule: Q01DX005 (iv), vehicle: water) was 104 % of control. The T/C [2] was 101 % of control and 96 % of control, the T/C (dose: 100.0 mg/kg/injection, schedule: Q01DX009 (ip), vehicle: suspension in saline) was 96 % of control and the T/C (dose: 100.0 mg/kg/injection, schedule: Q01DX009 (oral), vehicle: water) was 99 % of control. The T/C (dose: 100.0 mg/kg/injection, schedule: Q03HX016 (ip), vehicle: saline) was 156 % of control, the T/C (dose: 100.0 mg/kg/injection, schedule: Q03HX016 (ip), vehicle: water) was 160 % of control and the T/C (dose: 100.0 mg/kg/injection, schedule: Q03HX024 (ip), vehicle: saline) was 150 % of control. The T/C (dose: 100.0 mg/kg/injection, schedule: Q03HX024 (ip), vehicle: water) was 151 % of control, the T/C (dose: 100.0 mg/kg/injection, schedule: Q04DX003 (ip), vehicle: water) was 120 % of control and the T/C (dose: 100.0 mg/kg/injection, schedule: Q08DX002 (ip), vehicle: water) was 112 % of control. The T/C (dose: 150.0 mg/kg/injection, schedule: Q03HX016 (ip), vehicle: saline) was 167 % of control, the T/C (dose: 150.0 mg/kg/injection, schedule: Q03HX024 (ip), vehicle: saline) was 171 % of control and the T/C (dose: 160.0 mg/kg/injection, schedule: Q01DX009 (ip), vehicle: water) was 109 % of control. For the same molecule, the T/C (dose: 200.0 mg/kg/injection, schedule: Q01DX005 (iv), vehicle: water) was 102 % of control, the T/C [3] was 92 % of control and 101 % of control and the T/C (dose: 200.0 mg/kg/injection, schedule: Q01DX009 (ip), vehicle: suspension in saline) was 106 % of control. For the same molecule, the T/C (dose: 200.0 mg/kg/injection, schedule: Q01DX009 (oral), vehicle: water) was 104 % of control, the T/C (dose: 200.0 mg/kg/injection, schedule: Q03HX016 (ip), vehicle: water) was 183 % of control and the T/C (dose: 200.0 mg/kg/injection, schedule: Q03HX024 (ip), vehicle: water) was 186 % of control. For the same molecule, the T/C (dose: 200.0 mg/kg/injection, schedule: Q04DX003 (ip), vehicle: water) was 121 % of control, the T/C (dose: 200.0 mg/kg/injection, schedule: Q08DX002 (ip), vehicle: water) was 113 % of control and the T/C (dose: 400.0 mg/kg/injection, schedule: Q01DX005 (iv), vehicle: water) was 106 % of control. The T/C (dose: 400.0 mg/kg/injection, schedule: Q01DX009 (ip), vehicle: saline) was 104 % of control, the T/C (dose: 400.0 mg/kg/injection, schedule: Q01DX009 (ip), vehicle: water) was 153 % of control and the T/C (dose: 400.0 mg/kg/injection, schedule: Q03HX009 (oral), vehicle: water) was 98 % of control. For the same molecule, the T/C (dose: 400.0 mg/kg/injection, schedule: Q03HX015 (oral), vehicle: water) was 103 % of control, the T/C (dose: 400.0 mg/kg/injection, schedule: Q03HX016 (ip), vehicle: water) was 230 % of control and the T/C (dose: 400.0 mg/kg/injection, schedule: Q03HX024 (ip), vehicle: water) was 210 % of control. For the same molecule, the T/C (dose: 400.0 mg/kg/injection, schedule: Q04DX003 (ip), vehicle: water) was 119 % of control, the T/C (dose: 400.0 mg/kg/injection, schedule: Q08DX002 (ip), vehicle: water) was 118 % of control and the T/C (dose: 800.0 mg/kg/injection, schedule: Q01DX005 (ip), vehicle: water) was 158 % of control. The T/C (dose: 800.0 mg/kg/injection, schedule: Q01DX005 (iv), vehicle: water) was 111 % of control, the T/C (dose: 800.0 mg/kg/injection, schedule: Q01DX009 (ip), vehicle: water) was 164 % of control and the T/C (dose: 800.0 mg/kg/injection, schedule: Q01DX009 (oral), vehicle: water) was 90 % of control. For the same molecule, the T/C (dose: 800.0 mg/kg/injection, schedule: Q03HX009 (ip), vehicle: water) was 167 % of control, the T/C (dose: 800.0 mg/kg/injection, schedule: Q03HX009 (oral), vehicle: water) was 105 % of control and the T/C (dose: 800.0 mg/kg/injection, schedule: Q03HX015 (oral), vehicle: water) was 100 % of control. For the same molecule, the T/C (dose: 800.0 mg/kg/injection, schedule: Q03HX016 (ip), vehicle: water) was 260 % of control, the T/C (dose: 800.0 mg/kg/injection, schedule: Q08DX002 (ip), vehicle: water) was 124 % of control and the T/C (dose: 1600.0 mg/kg/injection, schedule: Q01DX009 (oral), vehicle: water) was 99 % of control. For the same molecule, the T/C (dose: 1600.0 mg/kg/injection, schedule: Q03HX009 (ip), vehicle: water) was 197 % of control, the T/C (dose: 1600.0 mg/kg/injection, schedule: Q03HX009 (oral), vehicle: water) was 98 % of control and the T/C (dose: 1600.0 mg/kg/injection, schedule: Q03HX015 (oral), vehicle: water) was 100 % of control. For the same molecule, the T/C (dose: 3200.0 mg/kg/injection, schedule: Q03HX009 (oral), vehicle: water) was 96 % of control and the T/C (dose: 3200.0 mg/kg/injection, schedule: Q03HX015 (oral), vehicle: water) was 102 % of control.

With `Nc1nc2ncc(CCCl)cc2c(=O)[nH]1` the T/C (dose: 50.0 mg/kg/injection, schedule: Q01DX005 (ip), vehicle: Klucel (hydroxypropylcellulose) (HPC)) was 102 % of control, the T/C (dose: 100.0 mg/kg/injection, schedule: Q01DX005 (ip), vehicle: Klucel (hydroxypropylcellulose) (HPC)) was 123 % of control and the T/C (dose: 200.0 mg/kg/injection, schedule: Q01DX005 (ip), vehicle: Klucel (hydroxypropylcellulose) (HPC)) was 107 % of control.

With `COc1cccc2c1C(=O)c1c(O)c3c(c(O)c1C2=O)C[C@@](O)(C(=O)CO)C[C@@H]3OC1CC(N2CCOCC2)C(O)C(C)O1` (some centres undefined) the T/C (dose: 5.0 micrograms/kg/injection, schedule: Q04DX003 (ip), vehicle: water) was 102 % of control, the T/C (dose: 10.0 micrograms/kg/injection, schedule: Q04DX003 (ip), vehicle: water) was 107 % of control and the T/C (dose: 20.0 micrograms/kg/injection, schedule: Q04DX003 (ip), vehicle: water) was 106 % of control. The T/C (dose: 22.0 micrograms/kg/injection, schedule: Q04DX003 (iv), vehicle: saline + alcohol) was 153 % of control, the T/C (dose: 31.25 micrograms/kg/injection, schedule: Q04DX003 (ip), vehicle: water) was 106 % of control and the T/C (dose: 33.0 micrograms/kg/injection, schedule: Q04DX003 (iv), vehicle: saline + alcohol) was 180 % of control. For the same molecule, the T/C (dose: 40.0 micrograms/kg/injection, schedule: Q04DX003 (ip), vehicle: water) was 104 % of control, the T/C (dose: 50.0 micrograms/kg/injection, schedule: Q04DX003 (iv), vehicle: saline + alcohol) was 173 % of control and the T/C (dose: 62.5 micrograms/kg/injection, schedule: Q04DX003 (ip), vehicle: water) was 100 % of control. For the same molecule, the T/C (dose: 75.0 micrograms/kg/injection, schedule: Q04DX003 (iv), vehicle: saline + alcohol) was 113 % of control, the T/C (dose: 125.0 micrograms/kg/injection, schedule: Q04DX003 (ip), vehicle: water) was 111 % of control and the T/C (dose: 250.0 micrograms/kg/injection, schedule: Q04DX003 (ip), vehicle: water) was 110 % of control. The T/C (dose: 500.0 micrograms/kg/injection, schedule: Q04DX003 (ip), vehicle: water) was 99 % of control.

In the case of `CN(C)CC#CC1(O)c2ccccc2CCc2ccccc21`, the T/C [1] was 91 % of control, the T/C [2] was 91 % of control and the T/C [3] was 91 % of control.

For `COC(=O)/C=C(/Sc1nc(Cl)c(Cl)nc1N)C(=O)OC` (tested in a mixture with another compound), the T/C (dose: 7.5 mg/kg/injection, schedule: Q01DX005 (ip), vehicle: Klucel (hydroxypropylcellulose) (HPC)) was 103 % of control, the T/C (dose: 15.0 mg/kg/injection, schedule: Q01DX005 (ip), vehicle: Klucel (hydroxypropylcellulose) (HPC)) was 113 % of control and the T/C (dose: 30.0 mg/kg/injection, schedule: Q01DX005 (ip), vehicle: Klucel (hydroxypropylcellulose) (HPC)) was 113 % of control.

Reference: PubChem BioAssay AID330 (DTP/NCI, 2004)
